{"source": "patent US4647563A", "about": "“Heterocyclic compounds” (Boehringer Ingelheim KG, priority 1978, dated 1987)", "key": {"heart rate": {"tested_on": "heart rate", "assay": "Increase in heart rate at the ED50 of uterine relaxation on anesthetized rats", "assay_type": "in vivo", "description": "(§1) Uterine relaxation was investigated on anesthetized rats. The intravenous ED50 of uterine relaxation was determined in ug/kg (50% of the tested animals react) and the (undesirable) increase in heart rate at the ED50 value was also determined. The comparison compound was fenoterol."}, "Uterine relaxation": {"tested_on": "Uterine relaxation", "assay": "Uterine relaxation on anesthetized rats", "assay_type": "in vivo", "settings": "Rattus norvegicus, iv, read-out: Uterine relaxation ED50 i.v.", "description": "as §1"}, "[1]": {"tested_on": "acetylcholine bronchospasm", "assay": "Bronchospasmolysis: influence on acetylcholine bronchospasm in guinea pigs under urethane anaesthesia, body plethysmography", "assay_type": "in vivo", "settings": "Cavia porcellus", "description": "1. Bronchospasmolysis The activity was tested on guinea pigs under urethane anaesthesia. Body plethysmography was used to determine the influence on acetylcholine bronchospasm after intravenous and oral application."}, "[2]": {"assay": "Acute toxicity, LD50 in mice", "settings": "mouse, in vivo"}, "[3]": {"settings": "intravenous, read-out: Broncholysis ED50 intravenous"}, "[4]": {"settings": "oral, read-out: Broncholysis ED50 oral"}, "[5]": {"settings": "anesthetized rats, 50% of the tested animals react"}}, "note": "Where two headings read alike, the source gives them in different places.", "data": [{"smiles": "CC(Cc1ccc(O)cc1)NCC(O)c1cc(O)cc(O)c1", "note": "(stereo not drawn) [Fenoterol, reference compound]", "values": [{"measurement": "Increase in heart rate in comparison with fenoterol", "setting": "heart rate; at the ED50 of uterine relaxation, fenoterol = 1, rats", "result": 1}, {"measurement": "Increase in heart rate (beats per min.)", "setting": "heart rate; at the ED50 of uterine relaxation, i.v., anesthetized rats", "result": 36, "unit": "beats per min."}, {"measurement": "ED50", "setting": "Uterine relaxation", "result": 0.45, "unit": "µg/kg"}]}, {"smiles": "CC(C)(CCn1cnc2ccccc21)NCC(O)c1ccc(O)c(CO)c1", "note": "(stereo not drawn) [Table III, 16th compound]", "values": [{"measurement": "ED50", "setting": "[1]; [3]", "result": 1.2, "unit": "µg/kg"}, {"measurement": "ED50", "setting": "[1]; [4]", "result": 7.6, "unit": "µg/kg"}]}, {"smiles": "Cc1c(C(O)CNC(C)(C)CCn2nnc3ccccc32)ccc(O)c1O", "note": "(stereo not drawn) [Table II, 15th compound]", "values": [{"measurement": "Increase in heart rate in comparison with fenoterol", "setting": "heart rate; rat, in vivo", "result": "2/3"}, {"measurement": "Increase in heart rate (beats per min.)", "setting": "heart rate; rat, in vivo, iv", "result": 23, "unit": "beats per min."}, {"measurement": "ED50", "setting": "Uterine relaxation; [5]", "result": 0.44, "unit": "µg/kg"}]}, {"smiles": "CC(C)(CCn1cnc2ccccc21)NCC(O)c1ccc(O)cc1Cl", "note": "(stereo not drawn) [Table II, 21st compound]", "values": [{"measurement": "ED50", "setting": "[1]; [3]", "result": 7.6, "unit": "µg/kg"}, {"measurement": "ED50", "setting": "[1]; [4]", "result": 190, "unit": "µg/kg"}]}, {"smiles": "CC(C)(CCn1cnc2ccccc21)NCC(O)c1ccc(O)c(NC(N)=O)c1", "note": "(stereo not drawn) [Table III, 15th compound]", "values": [{"measurement": "ED50", "setting": "[1]; [3]", "result": 0.9, "unit": "µg/kg"}, {"measurement": "ED50", "setting": "[1]; [4]", "result": 14, "unit": "µg/kg"}]}, {"smiles": "CC(C)(CCn1cnc2ccccc21)NCC(O)c1ccc(O)cc1F", "note": "(stereo not drawn) [Example 6, 1-(2-Fluoro-4-hydroxy-phenyl)-2-[4-(1-benzimidazolyl)-2-methyl-2-butylamino]-ethanol]", "values": [{"measurement": "ED50", "setting": "[1]; [3]", "result": 3.6, "unit": "µg/kg"}, {"measurement": "ED50", "setting": "[1]; [4]", "result": 7, "unit": "µg/kg"}, {"measurement": "LD50", "setting": "[2]; iv", "result": 29000, "unit": "µg/kg"}, {"measurement": "LD50", "setting": "[2]; po", "result": 300000, "unit": "µg/kg"}]}, {"smiles": "CC(C)(CCn1cnc2ccccc21)NCC(O)c1ccc(O)c2c1OCC(=O)N2", "note": "(stereo not drawn) [Table III, 24th compound]", "values": [{"measurement": "ED50", "setting": "[1]; [4]", "result": 5.4, "unit": "µg/kg"}]}, {"smiles": "CC(=O)Nc1cc(C(O)CNC(C)(C)CCn2cnc3ccccc32)ccc1O", "note": "(stereo not drawn) [Table II, 16th compound]", "values": [{"measurement": "ED50", "setting": "[1]; [3]", "result": 1.8, "unit": "µg/kg"}, {"measurement": "ED50", "setting": "[1]; [4]", "result": 66, "unit": "µg/kg"}]}, {"smiles": "CC(C)(C)NCC(O)c1ccc(O)c(CO)c1", "note": "(stereo not drawn) [Salbutamol, reference compound]", "values": [{"measurement": "ED50", "setting": "[1]; [3]", "result": 9.2, "unit": "µg/kg"}, {"measurement": "ED50", "setting": "[1]; [4]", "result": 1000, "unit": "µg/kg"}]}, {"smiles": "CC(C)(CCCn1cnc2ccccc21)NCC(O)c1ccc(O)c(NS(C)(=O)=O)c1", "note": "(stereo not drawn) [Table II, 24th compound]", "values": [{"measurement": "Increase in heart rate in comparison with fenoterol", "setting": "heart rate; rat, in vivo", "result": "1/2"}, {"measurement": "Increase in heart rate (beats per min.)", "setting": "heart rate; rat, in vivo, iv", "result": 18, "unit": "beats per min."}, {"measurement": "ED50", "setting": "Uterine relaxation; [5]", "result": 0.5, "unit": "µg/kg"}]}, {"smiles": "CC(C)(CCn1cnc2ccccc21)NCC(O)c1ccc(O)cc1", "note": "(stereo not drawn) [Table III 10th compound]", "values": [{"measurement": "Increase in heart rate in comparison with fenoterol", "setting": "heart rate; rat, in vivo", "result": "1/2"}, {"measurement": "Increase in heart rate (beats per min.)", "setting": "heart rate; rat, in vivo, iv", "result": 19, "unit": "beats per min."}, {"measurement": "ED50", "setting": "Uterine relaxation; [5]", "result": 0.82, "unit": "µg/kg"}]}]}
